Data reported in patent US9409907B2, “Inhibitor compounds” (Cancer Research Technology Limited, priority 2012, dated 2016).

target: full length MPS1 (Homo sapiens (Human), UniProt P33981); assay: Measurement of inhibition of MPS1 kinase (Caliper EZ reader mobility-shift enzyme assay); format: biochemical; details: full length MPS1 12.5 nM or 3 nM, H236 peptide 5 μM, ATP 10 μM, 60 min at room temperature
Experimental: Measurement of Inhibition of MPS1 Kinase
The reaction was carried out for 60 min at room temperature and stopped by the addition of buffer (10 μl) containing 20 mM EDTA, 0.05% (v/v) Brij-35, in 0.1M HEPES-buffered saline (Free acid, Sigma, UK). The plate was read on a Caliper EZ reader II (Caliper Life Sciences).
The % inhibition of the compounds is calculated relative to the means of selected control wells.

Sequence of full length MPS1 (P33981 whole entry): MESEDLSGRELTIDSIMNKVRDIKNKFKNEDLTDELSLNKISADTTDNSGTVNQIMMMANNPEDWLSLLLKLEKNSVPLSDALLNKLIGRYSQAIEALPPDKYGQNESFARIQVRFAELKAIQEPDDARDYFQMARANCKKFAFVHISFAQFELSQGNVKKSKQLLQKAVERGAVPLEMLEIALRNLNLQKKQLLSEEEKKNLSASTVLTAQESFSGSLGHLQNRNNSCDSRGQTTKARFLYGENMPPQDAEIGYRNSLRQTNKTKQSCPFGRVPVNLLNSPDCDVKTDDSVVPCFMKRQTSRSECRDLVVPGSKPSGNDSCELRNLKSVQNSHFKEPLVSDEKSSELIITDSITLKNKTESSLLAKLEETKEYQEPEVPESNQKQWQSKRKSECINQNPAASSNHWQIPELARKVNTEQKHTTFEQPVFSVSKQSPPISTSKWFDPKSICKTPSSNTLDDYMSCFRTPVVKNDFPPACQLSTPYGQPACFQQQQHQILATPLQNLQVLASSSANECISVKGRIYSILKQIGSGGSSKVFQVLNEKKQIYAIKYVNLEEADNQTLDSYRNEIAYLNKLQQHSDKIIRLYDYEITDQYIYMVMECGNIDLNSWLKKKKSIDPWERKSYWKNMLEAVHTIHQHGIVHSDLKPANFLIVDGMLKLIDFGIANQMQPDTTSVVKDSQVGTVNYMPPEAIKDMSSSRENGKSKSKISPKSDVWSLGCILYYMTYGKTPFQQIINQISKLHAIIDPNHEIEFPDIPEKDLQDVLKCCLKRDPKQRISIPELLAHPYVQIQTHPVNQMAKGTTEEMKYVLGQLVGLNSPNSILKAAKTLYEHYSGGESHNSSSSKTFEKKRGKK

With `COc1cc(-c2cnn(C)c2)ccc1Nc1ncc2ccnc(NCC3CCOC3)c2n1` (stereo not drawn) [Example 79, N2-(2-methoxy-4-(1-methyl-1H-pyrazol-4-yl)phenyl)-N8-((tetrahydrofuran-3-yl)methyl)pyrido[3,4-d]pyrimidine-2,8-diamine] as the compound, how does the IC50 read?
Its IC50 is 5 nM.

`COc1cc(N2CCCCC2)ccc1Nc1ncc2ccnc(NCC(C)(C)C)c2n1` [Example 171, N2-(2-methoxy-4-(piperidin-1-yl)phenyl)-N8-neopentylpyrido[3,4-d]pyrimidine-2,8-diamine] was tested. Which IC50 did it give?
Its IC50 is 65 nM.

Which IC50 does the source give for `COc1cc(-c2cnn(C)c2)ccc1Nc1ncc2ccnc(NCCO)c2n1` [Example 126, 2-(2-(2-Methoxy-4-(1-methyl-1H-pyrazol-4-yl)phenylamino)pyrido[3,4-d]pyrimidin-8-ylamino)ethanol] here?
The IC50 was 11 nM.

Which IC50 does the source give for `COc1cc(N2CCN(S(C)(=O)=O)CC2)ccc1Nc1ncc2cc(C)nc(NCC(C)(C)C)c2n1` [Example 183] here?
Its IC50 is 16 nM.

How did the IC50 turn out when `COc1cc(C(=O)N2CC(OC)C2)ccc1Nc1cc2c(-c3cnn(C)c3C)cccc2cn1` [Example 13, (4-((5-(1,5-dimethyl-1H-pyrazol-4-yl)isoquinolin-3-yl)amino)-3-methoxyphenyl)(3-methoxyazetidin-1-yl)methanone] was run?
The IC50 was 12 nM.

With `COc1cc(-c2cnn(C)c2)ccc1Nc1ncc2ccnc(N3CCC(C#N)CC3)c2n1` [Example 140, 1-(2-(2-Methoxy-4-(1-methyl-1H-pyrazol-4-yl)phenylamino)pyrido[3,4-d]pyrimidin-8yl)piperidine-4-carbonitrile] as the compound, how does the IC50 read?
The IC50 was 4 nM.

Which IC50 does the source give for `COc1cc(C(=O)N2CC(OC)C2)ccc1Nc1cc2c(-c3cccnc3)cccc2cn1` [Example 21, (3-Methoxy-4-((5-(pyridin-3-yl)isoquinolin-3-yl)amino)phenyl)(3-methoxyazetidin-1-yl)methanone] here?
Its IC50 is 30 nM.

With `COc1cc(-c2cnn(C)c2)ccc1Nc1ncc2ccnc(NCC3(O)CC3)c2n1` [Example 112, 1-((2-(2-methoxy-4-(1-methyl-1H-pyrazol-4-yl)phenylamino)pyrido[3,4-d]pyrimidin-8-ylamino)methyl)cyclopropanol] as the compound, how does the IC50 read?
The IC50 was 5 nM.

With `COc1cc(-c2cnn(C)c2)ccc1Nc1ncc2ccnc(N3CC4(CCOC4)C3)c2n1` [Example 120, N-(2-methoxy-4-(1-methyl-1H-pyrazol-4-yl)phenyl)-8-(6-oxa-2-azaspiro[3.4]octan-2-yl)pyrido[3,4-d]pyrimidin-2-amine] as the compound, how does the IC50 read?
Its IC50 is 3 nM.

Which IC50 does the source give for `Cn1cc(-c2cccc3cnc(Nc4ccc(-c5cncn5C)cc4Cl)cc23)cn1` [Example 17, N-(2-chloro-4-(1-methyl-1H-imidazol-5-yl)phenyl)-5-(1-methyl-1H-pyrazol-4-yl)isoquinolin-3-amine] here?
The IC50 was 51 nM.

Which IC50 does the source give for `Cn1cc(-c2ccc(Nc3ncc4ccnc(NCC(C)(C)C)c4n3)c(OC(F)(F)F)c2)cn1` [Example 169, N2-(4-(1-methyl-1H-pyrazol-4-yl)-2-(trifluoromethoxy)phenyl)-N8-neopentylpyrido[3,4-d]pyrimidine-2,8-diamine] here?
Its IC50 is 48 nM.

With `COc1cc(-c2cnn(C)c2)ccc1Nc1ncc2ccnc(N3CC(OC)C3)c2n1` [Example 67, N-(2-methoxy-4-(1-methyl-1H-pyrazol-4-yl)phenyl)-8-(3-methoxyazetidin-1-yl)pyrido[3,4-d]pyrimidin-2-amine] as the compound, how does the IC50 read?
Its IC50 is 10 nM.

With `COc1cc(-c2cnn(C)c2C)ccc1Nc1ncc2ccnc(NCC3(C)CCOC3)c2n1` (stereo not drawn) [Example 148, N^2-(4-(1,5-dimethyl-1H-pyrazol-4-yl)-2-methoxyphenyl)-N^8-((3-methyltetrahydrofuran-3-yl)methyl)pyrido[3,4-d]pyrimidine-2,8-diamine] as the compound, how does the IC50 read?
Its IC50 is 3 nM.

For `COc1cc(C(=O)N2CC(OC)C2)ccc1Nc1cc2c(-c3cncnc3)cccc2cn1` [Example 15, (3-methoxy-4-((5-(pyrimidin-5-yl)isoquinolin-3-yl)amino)phenyl)(3-methoxyazetidin-1-yl)methanone], which IC50 is on record?
The IC50 was 98 nM.

For `CC(C)(C)CNc1nccc2cnc(Nc3ccc(N4CCOCC4)cc3Cl)nc12` [Example 174, N2-(2-chloro-4-morpholinophenyl)-N8-neopentylpyrido[3,4-d]pyrimidine-2,8-diamine], which IC50 is on record?
Its IC50 is 10 nM.

For `COc1cc(-c2cnn(C)c2)ccc1Nc1ncc2ccnc(N3CCC(OC)CC3)c2n1` [Example 138, N-(2-Methoxy-4-(1-methyl-1H-pyrazol-4-yl)phenyl)-8-(4-methoxypiperidin-1-yl)pyrido[3,4-d]pyrimidin-2-amine], which IC50 is on record?
The IC50 was 8 nM.

How did the IC50 turn out when `COc1cc(-c2cnn(C)c2)ccc1Nc1ncc2ccnc(N3CCOC(CO)C3)c2n1` (stereo not drawn) [Example 135, (4-(2-(2-Methoxy-4-(1-methyl-1H-pyrazol-4-yl)phenylamino)pyrido[3,4-d]pyrimidin-8-yl)morpholin-2-yl)methanol] was run?
Its IC50 is 4 nM.

How did the IC50 turn out when `COc1cc(-c2cnn(C)c2)ccc1Nc1ncc2ccnc(NCCC(C)C)c2n1` [Example 60, N8-isopentyl-N2-(2-methoxy-4-(1-methyl-1H-pyrazol-4-yl)phenyl)pyrido[3,4-d]pyrimidine-2,8-diamine] was run?
Its IC50 is 21 nM.

`COc1cc(-c2nncn2C)ccc1Nc1ncc2ccnc(NCC(C)(C)C)c2n1` [Example 175, N2-(2-methoxy-4-(4-methyl-4H-1,2,4-triazol-3-yl)phenyl)-N8-neopentylpyrido[3,4-d]pyrimidine-2,8-diamine] was tested. Which IC50 did it give?
Its IC50 is 2 nM.

How did the IC50 turn out when `COc1cc(-c2cn(C)nc2C)ccc1Nc1ncc2cc(C)nc(NCC(C)(C)OC)c2n1` [Example 192] was run?
The IC50 was 5 nM.

`COc1cc(C(=O)N2CC(OC)C2)ccc1Nc1cc2c(-c3cncn3C)cccc2cn1` [Example 4, (3-methoxy-4-((5-(1-methyl-1H-imidazol-5-yl)isoquinolin-3-yl)amino)phenyl)(3-methoxyazetidin-1-yl)methanone] was tested. Which IC50 did it give?
The IC50 was 112 nM.

For `COc1cc(C(=O)N2CC(OC)C2)ccc1Nc1ncc2ccnc(NCC(C)(C)C)c2n1` [Example 153, (3-methoxy-4-(8-(neopentylamino)pyrido[3,4-d]pyrimidin-2-ylamino)phenyl)(3-methoxyazetidin-1-yl)methanone], which IC50 is on record?
The IC50 was 4 nM.

`COCCn1c(-c2ccc(Nc3ncc4cc(C)nc(NCC(C)(C)C)c4n3)c(OC)c2)cnc1C` [Example 181] was tested. Which IC50 did it give?
Its IC50 is 19.4 nM.

`CCOc1cc(-c2nncn2C)ccc1Nc1ncc2ccnc(NCC3(C)CCOC3)c2n1` (stereo not drawn) [Example 189] was tested. Which IC50 did it give?
The IC50 was 1 nM.

With `COc1cc(C2CCOCC2)ccc1Nc1ncc2ccnc(NCC3(C)CCOC3)c2n1` (stereo not drawn) [Example 154, N^2-(2-methoxy-4-(tetrahydro-2H-pyran-4-yl)phenyl)-N^8-((3-methyltetrahydrofuran-3-yl)methyl)pyrido[3,4-d]pyrimidine-2,8-diamine] as the compound, how does the IC50 read?
The IC50 was 7 nM.

For `COc1cc(-c2cnn(C)c2)ccc1Nc1ncc2ccnc(NCC3CCO3)c2n1` (stereo not drawn) [Example 116, N^2-(2-methoxy-4-(1-methyl-1H-pyrazol-4-yl)phenyl)-N8-(oxetan-2-ylmethyl)pyrido[3,4-d]pyrimidine-2,8-diamine], which IC50 is on record?
Its IC50 is 8 nM.

For `COc1cc(-c2cn(C)nc2C)ccc1Nc1ncc2ccnc(NCC(C)(C)OC)c2n1` [Example 190], which IC50 is on record?
The IC50 was 3 nM.

For `COc1nc(-c2cnn(C)c2C)ccc1Nc1ncc2ccnc(NCC(C)(C)OC)c2n1` [Example 165, N^2-(6-(1,5-dimethyl-1H-pyrazol-4-yl)-2-methoxypyridin-3-yl)-N^8-(2-methoxy-2-methylpropyl)pyrido[3,4-d]pyrimidine-2,8-diamine], which IC50 is on record?
The IC50 was 3 nM.

Which IC50 does the source give for `COc1cc(-c2cnc(C)n2C)ccc1Nc1ncc2cc(C)nc(NCC(C)(C)OC)c2n1` [Example 158] here?
The IC50 was 3 nM.

For `COc1cc(OC2CCN(C)CC2)ccc1Nc1cc2c(-c3cnn(C)c3)cccc2cn1` [Example 29, N-(2-Methoxy-4-((1-methylpiperidin-4-yl)oxy)phenyl)-5-(1-methyl-1H-pyrazol-4-yl)isoquinolin-3-amine], which IC50 is on record?
Its IC50 is 17 nM.

With `COc1cc(-c2cnn(C)c2)ccc1Nc1ncc2ccnc(N3CCC(C)C3)c2n1` (stereo not drawn) [Example 56, N-(2-methoxy-4-(1-methyl-1H-pyrazol-4-yl)phenyl)-8-(3-methylpyrrolidin-1-yl)pyrido[3,4-d]pyrimidin-2-amine] as the compound, how does the IC50 read?
The IC50 was 10 nM.

With `CCc1cc(-c2cnn(C)c2)ccc1Nc1ncc2ccnc(NCC(C)(C)C)c2n1` [Example 168, N2-(2-ethyl-4-(1-methyl-1H-pyrazol-4-yl)phenyl)-N8-neopentylpyrido[3,4-d]pyrimidine-2,8-diamine] as the compound, how does the IC50 read?
The IC50 was 27 nM.

Which IC50 does the source give for `COCCn1c(-c2ccc(Nc3ncc4ccnc(NCC5(C)CCOC5)c4n3)c(OC)c2)cnc1C` (stereo not drawn) [Example 187] here?
The IC50 was 2 nM.

For `COC(C)(C)CNc1nccc2cnc(Nc3ccc(Cl)cc3OC(F)F)nc12` [Example 202], which IC50 is on record?
The IC50 was 70 nM.

Which IC50 does the source give for `COc1cc(-c2cnn(C)c2)ccc1Nc1ncc2ccnc(NC(C)CO)c2n1` (racemic) [Example 129, Racemic 2-(2-(2-Methoxy-4-(1-methyl-1H-pyrazol-4-yl)phenylamino)pyrido[3,4-d]pyrimidin-8-ylamino)propan-1-ol] here?
Its IC50 is 7 nM.

Which IC50 does the source give for `COc1cc(-c2cnn(C)c2C)ccc1Nc1ncc2ccnc(N3CCC4(COC4)C3)c2n1` [Example 145, N-(4-(1,5-dimethyl-1H-pyrazol-4-yl)-2-methoxyphenyl)-8-(2-oxa-6-azaspiro[3.4]octan-6-yl)pyrido[3,4-d]pyrimidin-2-amine] here?
The IC50 was 2 nM.

`CCn1cc(-c2nccc3cnc(Nc4ccc(-c5cnn(C)c5)cc4OC)nc23)cn1` [Example 91, 8-(1-ethyl-1H-pyrazol-4-yl)-N-(2-methoxy-4-(1-methyl-1H-pyrazol-4-yl)phenyl)pyrido[3,4-d]pyrimidin-2-amine] was tested. Which IC50 did it give?
Its IC50 is 10 nM.

With `COc1nc(-c2cn(C)nc2C)ccc1Nc1ncc2ccnc(NCC(C)(C)OC)c2n1` [Example 164, N^2-(6-(1,3-Dimethyl-1H-pyrazol-4-yl)-2-methoxypyridin-3-yl)-N^8-(2-methoxy-2-methylpropyl)pyrido[3,4-d]pyrimidine-2,8-diamine] as the compound, how does the IC50 read?
Its IC50 is 3 nM.

`COc1cc(-c2cnn(CCN3CCN(C)CC3)c2)ccc1Nc1ncc2ccnc(NC3CCCCC3)c2n1` [Example 41, N^8-cyclohexyl-N2-(2-methoxy-4-(1-(2-(4-methylpiperazin-1-yl)ethyl)-1H-pyrazol-4-yl)phenyl)pyrido[3,4-d]pyrimidine-2,8-diamine] was tested. Which IC50 did it give?
Its IC50 is 3 nM.
